Laboratory results taken from ChEMBL document CHEMBL4052734, “Synthesis of novel 2-pyrazoline analogues with potent anti-inflammatory effect mediated by inhibition of phospholipase A2: Crystallographic, in silico docking and QSAR analysis” (Bioorg Med Chem Lett, 2017).
Values after ≈ are worked out from the molar mass of the structure shown. Active and inactive are the calls of the source. No cut-off for these calls is given here.

What was measured:
Staphylococcus aureus = assay: Antibacterial activity against Staphylococcus aureus MTCC 737 after 24 hrs by serial dilution method; type: functional; conditions: MTCC 737, 24 h
Candida albicans = assay: Antifungal activity against Candida albicans MTCC 227 after 72 hrs by serial dilution method; type: functional
Bacillus subtilis = assay: Antibacterial activity against Bacillus subtilis MTCC 441 after 24 hrs by serial dilution method; type: functional; conditions: MTCC 441, 24 h
Aspergillus flavus = assay: Antifungal activity against Aspergillus flavus after 72 hrs by serial dilution method; type: functional
Escherichia coli = assay: Antibacterial activity against Escherichia coli MTCC 1687 after 24 hrs by serial dilution method; type: functional; conditions: MTCC 1687, 24 h
[1] = target: T1, Basic phospholipase A2 VRV-PL-VIIIa (Daboia russelii, UniProt P59071); assay: (§1) Inhibition of Vipera russelii venom sPLA2 using DMPC as substrate preincubated for 2 mins followed by substrate addition measured after 30 mins
T1 sequence (P59071 whole entry): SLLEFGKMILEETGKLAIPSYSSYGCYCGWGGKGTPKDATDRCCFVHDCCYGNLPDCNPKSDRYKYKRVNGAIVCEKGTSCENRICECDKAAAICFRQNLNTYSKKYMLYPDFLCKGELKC

[2] = target: T2, Basic phospholipase A2 VRV-PL-VIIIa (Daboia russelii) (UniProt P59071); assay: as §1
T2 sequence (whole entry): T1 sequence (P59071 whole entry)

Aspergillus niger = assay: Antifungal activity against Aspergillus niger after 72 hrs by serial dilution method; type: functional
[3] = target: T2, Basic phospholipase A2 VRV-PL-VIIIa (Daboia russelii); assay: Inhibition of Vipera russelii venom sPLA2 using DMPC as substrate at 11.930 uM preincubated for 2 mins followed by substrate addition measured after 30 mins in presence of 1 to 12 mM CaCl2
[4] = target: T2, Basic phospholipase A2 VRV-PL-VIIIa (Daboia russelii); assay: Inhibition of Vipera russelii venom sPLA2 using DMPC as substrate at 11.102 uM preincubated for 2 mins followed by substrate addition measured after 30 mins in presence of 1 to 12 mM CaCl2
[5] = target: T2, Basic phospholipase A2 VRV-PL-VIIIa (Daboia russelii); assay: Inhibition of Vipera russelii venom sPLA2 using DMPC as substrate at 10.214 uM preincubated for 2 mins followed by substrate addition measured after 30 mins in presence of 1 to 12 mM CaCl2

Molecule	MIC90 (Staphylococcus aureus) [µg/mL]	MIC90 (Candida albicans; MTCC 227, 72 h) [µg/mL]	MIC90 (Bacillus subtilis) [µg/mL]	MIC90 (Aspergillus flavus) [µg/mL]	MIC90 (Escherichia coli) [µg/mL]	IC50 [1] [µM]	inhibition [2]	MIC90 (Aspergillus niger) [µg/mL]	inhibition [3]	inhibition [4]	MIC90 (Candida albicans) [µg/mL]	inhibition [5]
Clc1cccc(N2N=C(c3ccc4c(c3)OCO4)CC2c2cccc(Cl)c2Cl)c1 (stereo unspecified)	120 (≈ 269 µM)	130 (≈ 292 µM)	140 (≈ 314 µM)	120 (≈ 269 µM)	130 (≈ 292 µM)	49.8	Dose-dependent effect	120 (≈ 269 µM)	–	–	–	–
COc1ccc(C2=NN(c3ccccc3)C(c3cccc(Cl)c3Cl)C2)cc1 (stereo unspecified)	40 (≈ 101 µM)	30 (≈ 75.5 µM)	140 (≈ 352 µM)	125 (≈ 315 µM)	40 (≈ 101 µM)	11.9	Dose-dependent effect	50 (≈ 126 µM)	Active	–	–	–
O=C(O)c1cn(C2CC2)c2cc(N3CCNCC3)c(F)cc2c1=O [CIPROFLOXACIN]	20 (≈ 60.4 µM)	–	40 (≈ 121 µM)	–	20 (≈ 60.4 µM)	–	–	–	–	–	–	–
Cc1ccc(C2=NN(c3ccccc3)C(c3cccc(Cl)c3Cl)C2)cc1 (stereo unspecified)	60 (≈ 157 µM)	60 (≈ 157 µM)	120 (≈ 315 µM)	120 (≈ 315 µM)	60 (≈ 157 µM)	21.7	Dose-dependent effect	75 (≈ 197 µM)	–	–	–	–
Clc1cccc(N2N=C(c3ccccc3)CC2c2cccc(Cl)c2Cl)c1 (stereo unspecified)	20 (≈ 49.8 µM)	15 (≈ 37.3 µM)	120 (≈ 299 µM)	125 (≈ 311 µM)	20 (≈ 49.8 µM)	19.3	Dose-dependent effect	20 (≈ 49.8 µM)	–	–	–	–
Fc1ccc(C2=NN(c3cccc(Cl)c3)C(c3cccc(Cl)c3Cl)C2)cc1 (stereo unspecified)	40 (≈ 95.3 µM)	50 (≈ 119 µM)	120 (≈ 286 µM)	130 (≈ 310 µM)	25 (≈ 59.6 µM)	19.2	Dose-dependent effect	30 (≈ 71.5 µM)	–	–	–	–
Fc1ccc(C2=NN(c3ccccc3)C(c3cccc(Cl)c3Cl)C2)cc1 (stereo unspecified)	40 (≈ 104 µM)	50 (≈ 130 µM)	125 (≈ 324 µM)	120 (≈ 311 µM)	25 (≈ 64.9 µM)	11.1	Dose-dependent effect	30 (≈ 77.9 µM)	–	Active	–	–
COc1cccc(C2=NN(c3cccc(Cl)c3)C(c3cccc(Cl)c3Cl)C2)c1 (stereo unspecified)	50 (≈ 116 µM)	50 (≈ 116 µM)	125 (≈ 290 µM)	130 (≈ 301 µM)	30 (≈ 69.5 µM)	30.1	Dose-dependent effect	60 (≈ 139 µM)	–	–	–	–
COc1ccccc1C1=NN(c2ccccc2)C(c2cccc(Cl)c2Cl)C1 (stereo unspecified)	40 (≈ 101 µM)	30 (≈ 75.5 µM)	125 (≈ 315 µM)	125 (≈ 315 µM)	50 (≈ 126 µM)	30.3	Dose-dependent effect	40 (≈ 101 µM)	–	–	–	–
NYSTATIN	–	–	–	25	–	–	–	25	–	–	20	–
Clc1cccc(C2CC(c3ccccc3)=NN2c2ccccc2)c1Cl (stereo unspecified)	50 (≈ 136 µM)	25 (≈ 68.1 µM)	125 (≈ 340 µM)	110 (≈ 299 µM)	75 (≈ 204 µM)	12	Dose-dependent effect	30 (≈ 81.7 µM)	–	–	–	–
COc1cccc(C2=NN(c3ccccc3)C(c3cccc(Cl)c3Cl)C2)c1 (stereo unspecified)	50 (≈ 126 µM)	40 (≈ 101 µM)	130 (≈ 327 µM)	120 (≈ 302 µM)	50 (≈ 126 µM)	29.8	Dose-dependent effect	40 (≈ 101 µM)	–	–	–	–
COc1ccccc1C1=NN(c2cccc(Cl)c2)C(c2cccc(Cl)c2Cl)C1 (stereo unspecified)	40 (≈ 92.6 µM)	40 (≈ 92.6 µM)	140 (≈ 324 µM)	130 (≈ 301 µM)	40 (≈ 92.6 µM)	35.1	Dose-dependent effect	50 (≈ 116 µM)	–	–	–	–
Clc1cccc(C2CC(c3ccc4c(c3)OCO4)=NN2c2ccccc2)c1Cl (stereo unspecified)	130 (≈ 316 µM)	120 (≈ 292 µM)	140 (≈ 340 µM)	130 (≈ 316 µM)	140 (≈ 340 µM)	48.2	Dose-dependent effect	130 (≈ 316 µM)	–	–	–	–
Clc1ccc(C2=NN(c3cccc(Cl)c3)C(c3cccc(Cl)c3Cl)C2)cc1 (stereo unspecified)	10 (≈ 22.9 µM)	15 (≈ 34.4 µM)	100 (≈ 229 µM)	110 (≈ 252 µM)	15 (≈ 34.4 µM)	14.6	Dose-dependent effect	15 (≈ 34.4 µM)	–	–	–	–
Clc1ccc(C2=NN(c3ccccc3)C(c3cccc(Cl)c3Cl)C2)cc1 (stereo unspecified)	15 (≈ 37.3 µM)	15 (≈ 37.3 µM)	125 (≈ 311 µM)	120 (≈ 299 µM)	20 (≈ 49.8 µM)	10.2	Dose-dependent effect	25 (≈ 62.2 µM)	–	–	–	Active
